Counter-ions that a name gives are not always drawn.
Assays:
reserpine hypothermia [1] = test: Prevention of Reserpine Hypothermia; assay type: in vivo, mice (Carworth Europe male); details: mice, oral; for Δ^6: cumulative temperature difference from controls at 6 hours; for Δ^24: cumulative temperature difference from controls at 24 hours
Description: The method of Spencer [Antidepressant Drugs, 194 (1967) ] was used. Groups of ten mice are given oral doses of test compound 24 18 and 2 hours before an intravenous injection of reserpine base (Serpasil). Oral temperatures of the mice are taken immediately before administration of reserpine and then 2 4 6 and 24 hours afterwards.
Mean temperatures of groups given test compounds are compared with reserpinised controls using a Students t test. Compounds causing a significant difference at the level P < 0.001 are considered active. In order to quantify anti-reserpine activity cumulative temperature differences from controls at 6 hours and 24 hours (Δ^6 and Δ^24 ) are calculated.
(§1) Carworth Europe male mice are used for all experiments apart from that using the cat nictitating membrane and test compounds are administered orally as solutions in distilled water. Compounds for intravenous administration are dissolved in 0.9% saline apart from Reserpine which is dissolved in dilute acetic acid buffered to pH5. Unless otherwise stated, the dosing interval is one hour.
(§2) The Reserpine Prevention, Reserpine Reversal and Noradrenaline Uptake Inhibition tests were carried out as described in the previous Example. The Mydriasis tests was also as described in the previous Example but using 20 mg/kg doses of each compound after which a curve was plotted of percentage increase in pupil diameter vertus time and the percentage increase was integrated with respect to time for 0-120 minutes after dosing and the result expressed as a percentage.

reserpine hypothermia [2] = test: Reversal of Reserpine Hypothermia; assay type: in vivo, mice (Carworth Europe male); details: mice, subcutaneous; for Δ^6: 6 hours; for Δ^24: 24 hours
Description: Seventeen hours later the oral temperatures of the mice are taken and various doses of test compound or vehicle given subcutaneously. Temperatures are taken 1, 2, 4 6 and 24 hours later and the results are analysed as in Test 1 (The subcutaneous route is used for convenience as the very depressed reserpinised mice cannot be reliably dosed orally).
as §1, §2

Noradrenaline uptake = test: Inhibition of Noradrenaline Uptake in vitro (brain synaptosomes); assay type: biochemical, male Wistar rats
Description: (§3) Synaptosomes are isolated from the brains of male Wistar rats (150-170g.) and monamine uptake determined by the method of Snyder and Coyle (1968) [Synder S. H. and Coyle J. T. J. Pharmac. exp. Ther. 165 (1968) 78-86]. Uptake was determined over a ten minute period instead of the normal five minutes.
as §2

[3] = test system: 5-Hydroxytryptamine uptake; test: Inhibition of 5-Hydroxytryptamine Uptake in vitro (brain synaptosomes); assay type: biochemical, male Wistar rats
Description: as §3

[4] = test system: pupil diameter (mydriasis, anticholinergic side effect); test: Mydriatic Response in Mice (dose causing 200% increase in pupil size); assay type: in vivo; details: mice, intraperitoneal, at peak time
Description: Groups of five mice are pre-selected for uniformity of pupil diameter using a binocular microscope with a calibrated eye-piece. Pupil sizes are measured at various intervals after an intraperitoneal injection of test compound and at the peak time a curve plotted of percentage increase in pupil diameter versus log dose. […] Carworth Europe male mice are used for all experiments apart from that using the cat nictitating membrane and test compounds are administered orally as solutions in distilled water. […] Unless otherwise stated, the dosing interval is one hour.

[5] = target: T1, Guinea Pig Ileum (Cavia porcellus); test: pA2 Determination on Guinea Pig Ileum (antagonism to Acetylcholine); details: in vitro, read-out: pA2 on Iillium (converted)
T1 construct: from tissue; host or cells: guinea pig ileum
T1 sequence (H0W1Z3 1-590): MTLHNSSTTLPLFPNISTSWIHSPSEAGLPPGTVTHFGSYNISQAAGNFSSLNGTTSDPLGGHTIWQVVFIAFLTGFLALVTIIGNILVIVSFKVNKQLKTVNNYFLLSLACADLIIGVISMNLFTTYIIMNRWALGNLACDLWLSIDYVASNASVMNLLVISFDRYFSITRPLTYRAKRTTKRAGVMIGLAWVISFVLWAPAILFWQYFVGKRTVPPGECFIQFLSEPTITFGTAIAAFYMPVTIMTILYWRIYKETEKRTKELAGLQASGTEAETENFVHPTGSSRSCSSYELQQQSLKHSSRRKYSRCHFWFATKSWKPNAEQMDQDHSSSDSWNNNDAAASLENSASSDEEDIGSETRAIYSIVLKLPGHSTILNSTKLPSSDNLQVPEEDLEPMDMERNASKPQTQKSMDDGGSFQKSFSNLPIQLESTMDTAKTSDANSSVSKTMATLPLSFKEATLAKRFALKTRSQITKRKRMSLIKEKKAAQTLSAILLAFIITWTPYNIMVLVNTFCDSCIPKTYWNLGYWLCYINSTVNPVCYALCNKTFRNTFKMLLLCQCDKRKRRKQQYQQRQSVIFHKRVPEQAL
Description: It is thus a means of expressing anticholinergic activity which is independent of the dose of Acetylcholine and the piece of tissue used. The method used is similar to that of Schild, [Brit. J. Pharmacol. 14 (1959) 48] the tissue being bathed in Tyrode solution and a dose response curved for Acetylcholine being obtained.

With `CN(C)CC(O)C(c1ccccc1)c1ccc(F)cc1` (stereo not shown) [CH3 CH3 H H F, 3-Dimethylamino-1-p-fluorophenyl-1-phenyl-propan-2-ol] the “Δ^6” value (reserpine hypothermia [1]; 20 mg/kg) was 11 °C, the “Δ^24” value (reserpine hypothermia [1]; 20 mg/kg) was 15 °C and the “Δ^6” value (reserpine hypothermia [2]; 25 mg/kg) was 17 °C. The “Δ^24” value (reserpine hypothermia [2]; 25 mg/kg) was 23 °C, the “Inhibition of Monoamine Uptake NA (%)” value (Noradrenaline uptake; 10^-5 molar) was 80% and the “Inhibition of Monoamine Uptake NA (%)” value (Noradrenaline uptake; 10^-6 molar (Table 4)) was 59%. For the same molecule, the “Inhibition of Monoamine Uptake 5HT (%)” value ([3]; 10^-5 molar) was 85% and the “Inhibition of Monoamine Uptake 5HT (%)” value ([3]; 10^-6 molar) was 60%.

With `CN(C)CC(O)C(c1ccccc1)c1ccccc1` (stereo not shown) [CH3 CH3 H H H HBr, 3-Dimethylamino-1,1-diphenyl-propan-2-ol] the “Δ^6” value (reserpine hypothermia [1]; 20 mg/kg) was 13 °C, the “Δ^24” value (reserpine hypothermia [1]; 20 mg/kg) was 19 °C and the “Δ^6” value (reserpine hypothermia [2]; 20 mg/kg) was 14 °C. The “Δ^24” value (reserpine hypothermia [2]; 20 mg/kg) was 22 °C, the “Mydriasis-Dose to cause 200% effect” value [4] was 41 mg/kg and the Kb [5] was 10 µM.

`CNCC(O)C(c1ccccc1)c1ccc(C)cc1` (stereo not shown) [CH3 H H H CH3 HCl, 3-N-methylamino-1-phenyl-1-p-tolyl-propan-2-ol] was tested, and the “Δ^6” value (reserpine hypothermia [1]; 100 mg/kg) was 6 °C and the “Δ^24” value (reserpine hypothermia [1]; 100 mg/kg) was 6 °C.

In the case of `CNCC(O)C(c1ccccc1)c1ccccc1` (stereo not shown) [CH3 H H H H HCl, 3-Methylamino-1,1-diphenyl-propan-2-ol], the “Δ^6” value (reserpine hypothermia [1]; 20 mg/kg) is reported as > 10 °C, the “Δ^24” value (reserpine hypothermia [1]; 20 mg/kg) is reported as > 10 °C and the “Inhibition of Monoamine Uptake NA (%)” value (Noradrenaline uptake; 10^-5 molar) is reported as 85%. The “Inhibition of Monoamine Uptake NA (%)” value (Noradrenaline uptake; 10^-6 molar (Table 4)) was 65%, the “Mydriasis-Dose to cause 200% effect” value [4] was 114 mg/kg and the Kb [5] was 10 µM.

`CN(Cc1ccccc1)CC(C)(O)C(c1ccccc1)c1ccccc1` (stereo not shown) [CH3 H N(CH3)CH2C6H5, 3-(N-Benzyl N-methylamino)-2-methyl-1,1-diphenyl-propan-2-ol] was tested, and the “Δ^6” value (reserpine hypothermia [1]; 100 mg/kg) was 6 °C and the “Δ^24” value (reserpine hypothermia [1]; 100 mg/kg) was 8 °C.

In the case of `CNCC(C)(O)C(c1ccccc1)c1ccccc1` (stereo not shown) [CH3 H NHCH3, 3-(N-methylamino)-2-methyl-1,1-diphenyl-propan-2-ol], the “Δ^6” value (reserpine hypothermia [1]; 30 mg/kg) is reported as 7 °C and the “Δ^24” value (reserpine hypothermia [1]; 30 mg/kg) is reported as 13 °C.

In the case of `CNCC(O)C(c1ccccc1)c1ccc(F)cc1` (stereo not shown) [H CH3 H H F, 3-Methylamino-1-p-fluorophenyl-1-phenyl-propan-2-ol], the “Δ^6” value (reserpine hypothermia [1]; 30 mg/kg) is reported as 12 °C, the “Δ^24” value (reserpine hypothermia [1]; 30 mg/kg) is reported as 21 °C and the “Mydriasis-Dose to cause 200% effect” value [4] is reported as 92 mg/kg. It also gave a Kb [5] of 100 µM.

With `CC(=O)OC(CN(C)C)C(c1ccccc1)c1ccccc1` (stereo not shown) [H COCH3 N(CH3)2, 2-Acetoxy-3-dimethylamino-1,1-diphenyl-propane] the “Δ^6” value (reserpine hypothermia [1]; 20 mg/kg) was > 10 °C and the “Δ^24” value (reserpine hypothermia [1]; 20 mg/kg) was > 10 °C.

For `OC(CN1CCOCC1)C(c1ccccc1)c1ccccc1` (stereo not shown) [H H morpholino], the “Δ^6” value (reserpine hypothermia [1]; 100 mg/kg) was 10 °C and the “Δ^24” value (reserpine hypothermia [1]; 100 mg/kg) was 10 °C.

In the case of `OC(CN1CCCCC1)C(c1ccccc1)c1ccccc1` (stereo not shown) [H H piperidine, 3-N-Piperidino-1 1-diphenyl-propan-2-ol], the “Δ^6” value (reserpine hypothermia [1]; 100 mg/kg) is reported as 9 °C and the “Δ^24” value (reserpine hypothermia [1]; 100 mg/kg) is reported as 10 °C.

`CN(C)CCCN1c2ccccc2CCc2ccccc21` [Imipramine HCl, reference compound] was tested, and the “Δ^6” value (reserpine hypothermia [1]; 30 mg/kg) was 10 °C, the “Δ^24” value (reserpine hypothermia [1]; 30 mg/kg) was 17 °C and the “Δ^6” value (reserpine hypothermia [2]; 10 mg/kg) was 18 °C. For the same molecule, the “Δ^24” value (reserpine hypothermia [2]; 10 mg/kg) was 18 °C, the “Inhibition of Monoamine Uptake NA (%)” value (Noradrenaline uptake; 10^-5 molar) was 85% and the “Inhibition of Monoamine Uptake NA (%)” value (Noradrenaline uptake; 10^-6 molar (Table 4)) was 56%. The “Inhibition of Monoamine Uptake 5HT (%)” value ([3]; 10^-5 molar) was 90%, the “Inhibition of Monoamine Uptake 5HT (%)” value ([3]; 10^-6 molar) was 55% and the “Mydriasis-Dose to cause 200% effect” value [4] was 18 mg/kg. The Kb [5] was 0.001 µM.

From US4101676A, “Diphenylpropylamines to treat depression” (Beecham Group Limited, priority 1973, dated 1978)
